pKi: −log10 of the molar value. “And” between values parts separate entries of the source, which are not always exact repeats. Equal values may be shown once.

The target in this experiment is Mitogen-activated protein kinase 1 (Homo sapiens, UniProt P28482). The experiment in a line: Assay 1.
Mitogen-activated protein kinase 1, sequence (P28482 whole entry): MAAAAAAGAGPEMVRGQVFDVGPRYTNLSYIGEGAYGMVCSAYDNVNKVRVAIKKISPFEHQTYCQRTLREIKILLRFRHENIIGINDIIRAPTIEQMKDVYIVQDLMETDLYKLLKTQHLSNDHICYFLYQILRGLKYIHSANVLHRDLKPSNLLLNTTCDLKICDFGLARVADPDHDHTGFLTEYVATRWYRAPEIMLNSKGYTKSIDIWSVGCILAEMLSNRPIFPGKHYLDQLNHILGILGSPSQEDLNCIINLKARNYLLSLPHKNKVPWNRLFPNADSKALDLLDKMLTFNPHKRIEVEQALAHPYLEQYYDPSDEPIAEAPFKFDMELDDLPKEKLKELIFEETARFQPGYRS
One may read the pKi as the Ki on a negative log10 scale, so that one unit is a factor of ten. The low end stands for a high Ki, the high end for a low Ki. With `Cc1cnc(Nc2cccc(C)c2C)nc1-c1c[nH]c(C(=O)N[C@H](CO)c2cccc(Cl)c2)c1` [erk000526], the pKi was 9.00. For the molecule `Cc1cnc(Nc2cccc(O)c2C)nc1-c1c[nH]c(C(=O)N[C@H](CO)c2ccccc2)c1` [erk000527], the negative logarithm of the Ki (pKi) is 8.52. Take `CCN1CCC[C@H]1CNc1ncc(C)c(-c2c[nH]c(C(=O)N[C@H](CO)c3ccccc3)c2)n1` [erk000530]: the pKi was 6.96 and 7.22.

Molecule `COc1cccc(Nc2ncc(C)c(-c3c[nH]c(C(=O)N[C@H](CO)c4ccccc4)c3)n2)c1C` [erk000531] gave a negative-log Ki (pKi) of 7.10. The molecule `Cc1cccc([C@@H](CO)NC(=O)c2cc(-c3nc(Nc4ccccc4N(C)C)ncc3C)c[nH]2)c1` [erk000532] showed a pKi of 7.30. Then `Cc1cnc(Nc2ccccc2C#N)nc1-c1c[nH]c(C(=O)N[C@H](CO)c2ccccc2)c1` [erk000533], with 5.70; and `Cc1cnc(NC2CCCCC2)nc1-c1c[nH]c(C(=O)N[C@H](CO)c2ccccc2)c1` [erk000534], with 8.70; and `COc1cccc(Nc2ncc(C)c(-c3c[nH]c(C(=O)N[C@H](CO)c4cccc(C)c4)c3)n2)c1C` [erk000535], with 6.70. Then `Cc1cnc(NC(C)C)nc1-c1c[nH]c(C(=O)N[C@H](CO)c2cccc(F)c2)c1` [erk000536], with 7.82. `Cc1cnc(Nc2cccc(F)c2C)nc1-c1c[nH]c(C(=O)N[C@H](CO)c2ccccc2)c1` [erk000538] had a negative-log Ki (pKi) of 8.70. In the case of `Cc1cnc(Nc2cccc(C)c2C)nc1-c1c[nH]c(C(=O)N[C@H](CO)c2cccc(F)c2)c1` [erk000539] it was 8.40; in that of `Cc1cnc(NC2CCC2)nc1-c1c[nH]c(C(=O)N[C@H](CO)c2ccccc2)c1` [erk000540], 8.22; in that of `Cc1cnc(Nc2cccc(CO)c2C)nc1-c1c[nH]c(C(=O)N[C@H](CO)c2ccccc2)c1` [erk000541], 9.00. Take `Cc1cnc(NC2CC2)nc1-c1c[nH]c(C(=O)N[C@H](CO)c2cccc(F)c2)c1` [erk000542]: the pKi is 7.96.

`Nc1nccc(-c2c[nH]c(C(=O)N(CCO)Cc3ccccc3)c2)n1` [erk000543]: the pKi is 5.70.

Turning to `CCSc1ncc(C)c(-c2c[nH]c(C(=O)N[C@H](CO)c3ccccc3)c2)n1` [erk000544], the negative logarithm of the Ki (pKi) is 7.19. As for `CCC[C@H](C)Nc1ncc(C)c(-c2c[nH]c(C(=O)N[C@H](CO)c3ccccc3)c2)n1` [erk000546], the negative-log Ki (pKi) is 7.74. In turn, `CCC(CC)Nc1ncc(C)c(-c2c[nH]c(C(=O)N[C@H](CO)c3ccccc3)c2)n1` [erk000547] gave a negative logarithm of the Ki (pKi) of 8.22. This pKi is 0.48 log units higher than that of the molecule before.

For the molecule `COC[C@H](C)Nc1ncc(C)c(-c2c[nH]c(C(=O)N[C@H](CO)c3ccccc3)c2)n1` [erk000548], the negative logarithm of the Ki (pKi) was 7.62. Then `CC[C@@H](COC)Nc1ncc(C)c(-c2c[nH]c(C(=O)N[C@H](CO)c3ccccc3)c2)n1` [erk000549], with 7.57; and `CCC[C@@H](CO)Nc1ncc(C)c(-c2c[nH]c(C(=O)N[C@H](CO)c3ccccc3)c2)n1` [erk000551], with 7.70. In the case of `CSCC[C@@H](CO)Nc1ncc(C)c(-c2c[nH]c(C(=O)N[C@H](CO)c3ccccc3)c2)n1` [erk000552], the negative-log Ki (pKi) is 8.30. Molecule `Cc1cnc(NC2CCC(C)CC2)nc1-c1c[nH]c(C(=O)N[C@H](CO)c2ccccc2)c1` (some centres undefined) [erk000553] showed a pKi of 8.22. Then `Cc1cnc(Nc2cccc3c2CCC3)nc1-c1c[nH]c(C(=O)N[C@H](CO)c2ccccc2)c1` [erk000556], with 8.52; and `CC[C@@H](COC)Nc1ncc(C)c(-c2c[nH]c(C(=O)N[C@H](CO)c3cccc(Cl)c3)c2)n1` [erk000557], with 8.40. In the case of `Cc1cnc(NN2CCOCC2)nc1-c1c[nH]c(C(=O)N[C@H](CO)c2cccc(Cl)c2)c1` [erk000558] it was 8.70. Consider `Cc1cnc(Nc2cc(Cl)cc(Cl)c2)nc1-c1c[nH]c(C(=O)N[C@H](CO)c2ccccc2)c1` [erk000559], for which the negative-log Ki (pKi) was 8.52. Then `CC(=O)NCCNc1ncc(C)c(-c2c[nH]c(C(=O)N[C@H](CO)c3ccccc3)c2)n1` [erk000560], with 7.24; and `Cc1cnc(Nc2c(F)cccc2F)nc1-c1c[nH]c(C(=O)N[C@H](CO)c2ccccc2)c1` [erk000561], with 8.40; and `Cc1cnc(Nc2cccc(Br)c2C)nc1-c1c[nH]c(C(=O)N[C@H](CO)c2ccccc2)c1` [erk000562], with 7.57. Then `Cc1ccc(Nc2ncc(C)c(-c3c[nH]c(C(=O)N[C@H](CO)c4ccccc4)c3)n2)cc1Br` [erk000563], with 8.52; and `Cc1cnc(Nc2c(Cl)cccc2Cl)nc1-c1c[nH]c(C(=O)N[C@H](CO)c2ccccc2)c1` [erk000564], with 6.82. `Cc1cnc(Nc2cccc([N+](=O)[O-])c2)nc1-c1c[nH]c(C(=O)N[C@H](CO)c2ccccc2)c1` [erk000565] had a pKi of 8.52. In turn, `Cc1cc(C)cc(Nc2ncc(C)c(-c3c[nH]c(C(=O)N[C@H](CO)c4ccccc4)c3)n2)c1` [erk000566] gave a negative-log Ki (pKi) of 8.52. In the case of `Cc1cnc(NCCN2CCCC2)nc1-c1c[nH]c(C(=O)N[C@H](CO)c2ccccc2)c1` [erk000568] it was 6.65. For `Cc1cnc(Nn2cccc2)nc1-c1c[nH]c(C(=O)N[C@H](CO)c2ccccc2)c1` [erk000573], the negative logarithm of the Ki (pKi) was 8.05. In the case of `Cc1cnc(Nc2c(C)cccc2Cl)nc1-c1c[nH]c(C(=O)N[C@H](CO)c2ccccc2)c1` [erk000575], the negative-log Ki (pKi) is 6.96. Then `Cc1cnc(NCCc2ccccc2)nc1-c1c[nH]c(C(=O)N[C@H](CO)c2ccccc2)c1` [erk000578], with 8.15; and `Cc1cnc(NCc2ccncc2)nc1-c1c[nH]c(C(=O)N[C@H](CO)c2ccccc2)c1` [erk000579], with 6.11. Then `Cc1cnc(NCc2ccccn2)nc1-c1c[nH]c(C(=O)N[C@H](CO)c2ccccc2)c1` [erk000580], with 5.95; and `CCONc1ncc(C)c(-c2c[nH]c(C(=O)N[C@H](CO)c3cccc(Cl)c3)c2)n1` [erk000582], with 8.22. Then `Cc1cnc(NC2CCOCC2)nc1-c1c[nH]c(C(=O)N[C@H](CO)c2cccc(Cl)c2)c1` [erk000584], with 8.10. `Cc1ccc(Nc2ncc(C)c(-c3c[nH]c(C(=O)N[C@H](CO)c4cccc(Cl)c4)c3)n2)cc1` [erk000585] showed a negative logarithm of the Ki (pKi) of 8.15.

`Cc1ccc(Nc2ncc(C)c(-c3c[nH]c(C(=O)N[C@H](CO)c4cccc(C)c4)c3)n2)cc1` [erk000586] showed a pKi of 8.70.

For the molecule `Cc1cnc(NN2CCCCC2)nc1-c1c[nH]c(C(=O)N[C@H](CO)c2ccccc2)c1` [erk000587], the pKi was 9.00. In the case of `Cc1ccc(-c2csc(Nc3ncc(C)c(-c4c[nH]c(C(=O)N[C@H](CO)c5ccccc5)c4)n3)n2)cc1` [erk000588] it was 8.00. Then `Cc1cnc(Nc2cccc3c2OC(F)(F)O3)nc1-c1c[nH]c(C(=O)N[C@H](CO)c2ccccc2)c1` [erk000591], with 8.10; and `Cc1cnc(NC2Cc3ccccc3C2)nc1-c1c[nH]c(C(=O)N[C@H](CO)c2cccc(Cl)c2)c1` [erk000592], with 7.80. With `Cc1cnc(Nc2c(F)cccc2F)nc1-c1c[nH]c(C(=O)N[C@H](CO)c2cccc(Cl)c2)c1` [erk000593], the pKi was 7.85. Turning to `N#Cc1c(NCCN2CCCCC2)sc(-c2ccnc(Nc3cccc(O)c3)n2)c1-c1cccc(Cl)c1` [erk000594], the negative logarithm of the Ki (pKi) was 7.57.

Molecule `Cc1cnc(NOCC(C)C)nc1-c1c[nH]c(C(=O)N[C@H](CO)c2cccc(Cl)c2)c1` [erk000597] gave a negative logarithm of the Ki (pKi) of 7.85. As to `CCONc1ncc(C)c(-c2c[nH]c(C(=O)N[C@H](CO)c3cccc(C)c3)c2)n1` [erk000599], the pKi is 8.52. `Cc1cccc([C@@H](CO)NC(=O)c2cc(-c3nc(NOCC(C)C)ncc3C)c[nH]2)c1` [erk000600] showed a negative-log Ki (pKi) of 8.00. Then `Cc1cccc([C@@H](CO)NC(=O)c2cc(-c3nc(Nc4cccc(F)c4C)ncc3C)c[nH]2)c1` [erk000601], with 8.10. Then `Cc1cccc([C@@H](CO)NC(=O)c2cc(-c3nc(NC4CCOCC4)ncc3C)c[nH]2)c1` [erk000602], with 8.52; and `Cc1cccc([C@@H](CO)NC(=O)c2cc(-c3nc(Nc4ccccn4)ncc3C)c[nH]2)c1` [erk000603], with 8.05.

`CC[C@@H](C)Nc1ncc(C)c(-c2c[nH]c(C(=O)N[C@H](CO)c3cccc(C)c3)c2)n1` [erk000604] gave a pKi of 7.12. Compared with the last molecule, the pKi is 0.93 log units lower. On to `Cc1cnc(N[C@@H](C)C(C)C)nc1-c1c[nH]c(C(=O)N[C@H](CO)c2cccc(Cl)c2)c1` [erk000605], for which the negative logarithm of the Ki (pKi) is 8.22. In the case of `Cc1cnc(N[C@@H]2CCC[C@H](C)[C@@H]2C)nc1-c1c[nH]c(C(=O)N[C@H](CO)c2cccc(Cl)c2)c1` [erk000606] it was 7.89; in that of `Cc1cnc(N[C@H](C)C(C)C)nc1-c1c[nH]c(C(=O)N[C@H](CO)c2cccc(Cl)c2)c1` [erk000607], 9.00; in that of `Cc1cnc(N[C@H]2CCC[C@H]2OCc2ccccc2)nc1-c1c[nH]c(C(=O)N[C@H](CO)c2cccc(Cl)c2)c1` [erk000608], 7.77.

`Cc1cnc(N[C@H]2CCC[C@@H]2OCc2ccccc2)nc1-c1c[nH]c(C(=O)N[C@H](CO)c2cccc(Cl)c2)c1` [erk000609] gave a pKi of 7.34. `Cc1cccc([C@@H](CO)NC(=O)c2cc(-c3nc(N[C@@H]4CCOC4)ncc3C)c[nH]2)c1` [erk000610] showed a pKi of 8.00. Then `Cc1cnc(Nc2ccccn2)nc1-c1c[nH]c(C(=O)N[C@H](CO)c2cccc(Cl)c2)c1` [erk000611], with 7.15.

Take `Cc1cnc(N[C@H]2CCC[C@H]2O)nc1-c1c[nH]c(C(=O)N[C@H](CO)c2cccc(Cl)c2)c1` [erk000612]: the pKi is 8.15. Then `Cc1cnc(N[C@H]2CCC[C@@H]2O)nc1-c1c[nH]c(C(=O)N[C@H](CO)c2cccc(Cl)c2)c1` [erk000613], with 7.46; and `CCCONc1ncc(C)c(-c2c[nH]c(C(=O)N[C@H](CO)c3cccc(C)c3)c2)n1` [erk000614], with 8.30. In turn, `CCCONc1ncc(C)c(-c2c[nH]c(C(=O)N[C@H](CO)c3cccc(Cl)c3)c2)n1` [erk000615] gave a pKi of 8.40.

For the molecule `COc1cccc(Nc2ncc(C)c(-c3c[nH]c(C(=O)N[C@H](CO)c4ccccc4)c3)n2)c1OC` [erk000616], the negative logarithm of the Ki (pKi) was 8.70.
